Reference: patent publication US20230134986A1, “GLUCOSE TRIPTOLIDE CONJUGATES AND USES THEREOF” (The Johns Hopkins University, priority 2020, published 2023)
Entries after “also recorded” stand apart in the source; their conditions may differ.

Columns and labels:
DLD-1 WT cells = test: DLD-1 WT proliferation under hypoxia or normoxia; assay type: cell-based; conditions: Homo sapiens; WT DLD-1 cells, hypoxic conditions (1% oxygen)
[1] = tested on: T7115 (C342T XPB knock-in HEK293T cells); test: Proliferation of XPB C342T knock-in cell line T7115 ([3H]-thymidine incorporation); assay type: cell-based, human; conditions: C342T XPB knock-in versus isogenic WT 293T
Text: Cells and culture conditions. Primary astrocytes (Lonza, Walkersville, Md.; ABM™ Basal Media with AGM™ SingleQuots™ Supplement Pack), fibroblast (ATCC; Fibroblast Basal Medium (ATCC© PCS-201-030™) with Fibroblast Growth Kit-Serum-free (ATCC© PCS-201-040™)), airway epithelial cell (ATCC; Airway Epithelial Cell Basal Medium (ATCC© PCS-300-030™) with Bronchial Epithelial Cell Growth Kit (ATCC© PCS-300-040™)), renal proximal tubule (ATCC; Renal Epithelial Cell Basal Medium (ATCC© PCS-400-030™) with Renal Epithelial Cell Growth Kit (ATCC© PCS-400-040™)), prostate epithelial cell (Lonza; PrEGM™ BulletKit™) and mammary epithelial cell (Lonza; MEBM™ BulletKit™) were kept in a humidified incubator at 37° C. adjusted to 5% CO2. […]

[2] = Stability of glutriptolides in human serum (HPLC-MS); assay type: in vitro ADME; conditions: incubation for up to 72 h
Procedure: Stability of glutriptolides in human serum. Human serum (Sigma, 10% in DMEM media) was treated with 10 μM drug (triptolide or glutriptolides) at room temperature for various time points. The incubation was stopped by placing samples on dry ice followed by overnight storage in −80° C. Frozen samples were then lyophilized and reconstituted in DMSO at room temperature for an hour. Samples were centrifuged at 12,000 RPM for 10 minutes and supernatants loaded into an HPLC-MS with the following conditions: (Varian pursuit XR5 Diphenyl 150×4.6 mm; A phase: Millipore water with 0.1% HCOOH; B phase: Acetonitrile with 0.1% HCOOH; 0-6 min: […]; 6-24 min: 5% B-100% B; 24-28 min: 100% B; 28-29 min: 100% B5% B; 29-30 min: 5% B).

HeLa = HeLa proliferation under hypoxia ([3H]-thymidine incorporation); assay type: cell-based, human; conditions: 1% O2, 48 h post treatment
TFIIH = molecular target: T1, TFIIH (Homo sapiens, UniProt P19447); test: DNA-dependent ATPase activity assay of TFIIH; assay type: biochemical
T1 construct: made in house
Procedure: ATPase activity assay. The TFIIH complex was purified and its DNA-dependent ATPase assay was performed as previously described (Titov et al. (2011) Nat. Chem. Biol. 7:182-88). Briefly, a 10-μl reaction mixture contained 20 mM Tris (pH 7.9), 4 mM MgCl2, 1 μM of ATP, 0.1 μCi [^γ-^32P]ATP (3000 Ci/mmol), 100 μg/ml BSA, 100 nM RNA Polymerase II promoter positive control DNA, 1 nM TFIIH and indicated concentrations of triptolide or its analogs. The reactions were started by either addition of TFIIH for 2 hr and stopped by addition of 2 μl of 0.5 M EDTA. An aliquot of 1 μl reaction mixture was spotted on PEI-cellulose (sigma) and the chromatogram was developed with 0.5 M LiCi and 1 M HCOOH. The percent of ATP hydrolysis was quantified using a Typhoon FLA 9500 Variable Imager (GE Healthcare).

[3] = tested on: DLD-1 GLUT1 knockout (GLUT1 KO) cells; test: DLD-1 GLUT1 knockout proliferation under hypoxia or normoxia; assay type: cell-based, human
MCF-7 = MCF-7 proliferation under hypoxia ([3H]-thymidine incorporation); assay type: cell-based, human; conditions: MCF-7, 1% O2, 48 h post treatment
PC3 cells = test: PC3 proliferation under hypoxia or normoxia ([3H]-thymidine incorporation); assay type: cell-based, human; conditions: for IC50: Homo sapiens, PC-3, 48 h, 48 h post treatment
Procedure: Proliferation and viability assays. [^3H]-thymidine incorporation. HEK293T cells (10,000 cells/well) were seeded into 96-well plates then cultured in DMEM plus 10% FBS and 1% penicillin/streptomycin at 37° C. with 5% CO2 overnight. Drugs were added at indicated concentrations and incubation was continued for an additional 24 h. For hypoxia, PC3 (5,000 cells/well) were exposed to 1% O2 (Airgas) in a humidified hypoxia chamber (Billups-Rothenberg) in 37° C. for 48 h prior to drug exposure for 48 h. Treated cells were then pulsed using an aliquot of 1 μCi of [^3H]-thymidine (Perkin Elmer) per well for an additional 6 h. Radiolabelled cells were harvested onto a printed Filtermat A glass fiber filter (Perkin Elmer) using a Tomtec Harvester 96 Mach III M. Betaplate Scint (Perkin Elmer) scintillation fluid was added to radiolabelled filters followed by scintillation counting on Microbeta2 LumiJET Microplate Counter (Perkin Elmer).

SMILES: CC(C)[C@]12O[C@H]1[C@@H]1O[C@]13[C@]1(O[C@H]1C[C@H]1C4=C(CC[C@@]13C)C(=O)OC4)[C@@H]2OC(=O)CCCO[C@@H]1OC(CO)[C@@H](O)C(O)C1O (stereo in doubt) [Compound 1]
- IC50 (DLD-1 WT cells): 1300 nM
- sensitivity of T7115 mutant line (proliferation) [1]: resistant
- stability in human serum [2]: remained largely intact
- effect of hypoxia on anti-proliferative effect (HeLa): enhances the anti-proliferative effect
- inhibition of ATPase activity of TFIIH (TFIIH): only a small fraction of the activity was affected; also recorded: does not inhibit
- IC50 ([3]; Homo sapiens, DLD-1, GLUT1 knockout cell line, hypoxic conditions (1% oxygen)): 2500 nM
- difference in sensitivity between DLD-1 WT and GLUT1 KO ([3]; normoxia (20% oxygen)): no difference in sensitivity
- effect of hypoxia on anti-proliferative effect (MCF-7): modest enhancement
- IC50 (PC3 cells; PC3, hypoxic conditions (1% O2)): 81 nM
- IC50 (PC3 cells; PC3, normoxic conditions (20% O2)): 427 nM
- fold enhancement of anti-proliferative effect during hypoxia (PC3 cells; PC3, hypoxia versus normoxia): five-fold
